# Reference: the NIST ThermoML archive (doi:10.1021/acs.jced.5b00298)
# Numbers after ± are expanded uncertainties.
# Assay: mn = molality of the nth substance listed, in mol/kg
# Conditions: 298.15 K, 101 kPa, Liquid, Vibrating tube method
mass density (m1 = 0.4002),mass density (m1 = 0.8001),mass density (m1 = 1),SMILES,mass density (m1 = 0.02),mass density (m1 = 0.1001),mass density (m1 = 0.4001),mass density (m1 = 0.8),mass density (m1 = 1.201),mass density (m1 = 1.602),mass density (m1 = 0.0201),mass density (m1 = 0.1),mass density (m1 = 0.8002),mass density (m1 = 1.2),mass density (m1 = 1.6)
,,,O=[N+]([O-])[O-].[Na+] [sodium nitrate] + O,998.191 ± 0.075 kg/m3,1002.65 ± 0.075 kg/m3,1019.02 ± 0.082 kg/m3,1040.02 ± 0.09 kg/m3,1060.25 ± 0.098 kg/m3,1079.67 ± 0.11 kg/m3,,,,,
,,,[Na+].[O-][Cl+3]([O-])([O-])[O-] [sodium perchlorate] + O,,,1027.27 ± 0.087 kg/m3,,,,998.644 ± 0.078 kg/m3,1004.82 ± 0.079 kg/m3,1055.68 ± 0.098 kg/m3,1083.49 ± 0.11 kg/m3,1111.93 ± 0.12 kg/m3
1045.75 ± 0.1 kg/m3,1090.93 ± 0.12 kg/m3,1112.49 ± 0.13 kg/m3,O=S(=O)([O-])[O-].[Na+].[Na+] [sodium sulfate] + O,,1009.69 ± 0.089 kg/m3,,,,,999.638 ± 0.087 kg/m3,,,1133.41 ± 0.14 kg/m3,
